Test results published in patent US20160318987A1 (MEDIMMUNE LIMITED, priority 2013, published 2016).
*1 amine or outer side, *2 acyl side, *3 side chain or, on linkers, in order; H or OH if unused. Where a SMILES comes first, the peptide text is derived from it. Side-chain parts run from the residue outwards. [ ]: non-standard residue; d: D form. The star is where a group is joined. γGlu = O=C(O)[C@H](CCC(=O)[*:2])N[*:1]; Palmitoyl = CCCCCCCCCCCCCCCC(=O)*; αMeF = C[C@](N)(Cc1ccccc1)C(=O)O; αMeK = C[C@](N)(CCCCN)C(=O)O; Aib = CC(C)(N)C(=O)O

Columns and labels:
Type in all cases: cell-based
Details in all cases: n = 2
[1] = biological target: T1, hGLP-1R (Homo sapiens, UniProt P43220); experiment: cAMP functional assay, cells expressing human GLP-1 receptor (primary assay)
T1 construct: expressed in transfected cells
T1 sequence (P43220 24-463): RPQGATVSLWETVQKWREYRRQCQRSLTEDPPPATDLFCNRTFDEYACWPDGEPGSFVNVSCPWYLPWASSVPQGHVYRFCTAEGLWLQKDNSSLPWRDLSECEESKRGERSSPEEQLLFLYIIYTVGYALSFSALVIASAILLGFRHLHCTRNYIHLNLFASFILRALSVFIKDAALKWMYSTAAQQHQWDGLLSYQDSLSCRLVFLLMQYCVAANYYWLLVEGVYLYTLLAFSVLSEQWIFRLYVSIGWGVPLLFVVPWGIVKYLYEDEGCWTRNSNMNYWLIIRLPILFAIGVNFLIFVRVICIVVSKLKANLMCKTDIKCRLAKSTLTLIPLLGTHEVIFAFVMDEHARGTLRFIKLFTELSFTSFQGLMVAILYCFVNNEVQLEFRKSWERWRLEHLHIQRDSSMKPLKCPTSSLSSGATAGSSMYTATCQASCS

[2] = biological target: T2, hGluc-R (Homo sapiens, UniProt P47871); experiment: cAMP functional assay, cells expressing human glucagon receptor (primary assay)
T2 construct: expressed in transfected cells
T2 sequence (P47871 26-477): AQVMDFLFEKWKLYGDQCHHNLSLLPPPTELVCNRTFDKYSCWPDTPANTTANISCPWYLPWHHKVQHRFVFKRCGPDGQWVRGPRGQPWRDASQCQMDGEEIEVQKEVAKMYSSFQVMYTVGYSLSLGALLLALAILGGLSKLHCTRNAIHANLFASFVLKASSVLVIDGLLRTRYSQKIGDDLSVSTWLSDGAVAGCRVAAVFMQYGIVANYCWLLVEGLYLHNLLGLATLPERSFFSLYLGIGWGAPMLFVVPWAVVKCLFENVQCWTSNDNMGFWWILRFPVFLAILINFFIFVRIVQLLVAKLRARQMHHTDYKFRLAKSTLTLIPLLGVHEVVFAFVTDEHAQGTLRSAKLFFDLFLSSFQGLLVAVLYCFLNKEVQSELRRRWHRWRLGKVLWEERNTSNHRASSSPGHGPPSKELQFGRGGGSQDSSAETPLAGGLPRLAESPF

[3] = biological target: T3, hGIP-R (Homo sapiens, UniProt P48546); experiment: cAMP functional assay, cells expressing human GIP receptor (primary assay)
T3 construct: expressed in transfected cells
T3 sequence (P48546 22-466): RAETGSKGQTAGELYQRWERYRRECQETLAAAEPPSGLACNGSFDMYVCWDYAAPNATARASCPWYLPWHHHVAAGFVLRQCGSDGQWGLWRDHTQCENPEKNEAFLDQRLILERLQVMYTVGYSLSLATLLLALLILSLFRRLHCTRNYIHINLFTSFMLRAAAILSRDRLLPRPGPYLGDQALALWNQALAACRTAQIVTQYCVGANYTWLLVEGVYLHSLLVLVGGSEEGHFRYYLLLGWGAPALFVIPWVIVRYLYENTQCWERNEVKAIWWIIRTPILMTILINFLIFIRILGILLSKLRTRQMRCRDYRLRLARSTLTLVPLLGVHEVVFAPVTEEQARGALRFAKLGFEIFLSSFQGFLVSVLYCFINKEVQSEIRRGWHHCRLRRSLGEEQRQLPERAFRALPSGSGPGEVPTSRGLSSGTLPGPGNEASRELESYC

| SMILES | EC50 [1] | EC50 [2] | EC50 [3] |
| --- | --- | --- | --- |
| CC[C@H](C)[C@H](NC(=O)[C@H](Cc1ccccc1)NC(=O)[C@H](CCC(=O)O)NC(=O)[C@H](CCCCN)NC(=O)[C@H](C)NC(=O)[C@H](C)NC(=O)[C@H](CCC(N)=O)NC(=O)CNC(=O)[C@H](CCC(=O)O)NC(=O)[C@H](CC(C)C)NC(=O)[C@H](Cc1ccc(O)cc1)NC(=O)[C@H](CO)NC(=O)[C@H](CO)NC(=O)[C@@H](NC(=O)[C@H](CC(=O)O)NC(=O)[C@H](CO)NC(=O)[C@@H](NC(=O)[C@H](Cc1ccccc1)NC(=O)[C@@H](NC(=O)CNC(=O)[C@H](CCC(=O)O)NC(=O)C(C)(C)NC(=O)[C@@H](N)Cc1c[nH]cn1)[C@@H](C)O)[C@@H](C)O)C(C)C)C(=O)N[C@@H](C)C(=O)N[C@@H](Cc1c[nH]c2ccccc12)C(=O)N[C@@H](CC(C)C)C(=O)N[C@H](C(=O)N[C@@H](CCCCN)C(=O)NCC(=O)NC(C)(C)C(N)=O)C(C)C [SEQ ID NO: 25, H-(Aib)^2-EGT^5 FTSDV^10 SSYLE^15 GQAAK^20 EFIAW^25 LVKG-(Aib)^30] | 0.0277 nM | 96.4 nM | 96.4 nM |
| CC[C@H](C)[C@H](NC(=O)[C@](C)(Cc1ccccc1)NC(=O)[C@H](CCC(=O)O)NC(=O)[C@](C)(CCCCN)NC(=O)[C@H](C)NC(=O)[C@H](C)NC(=O)[C@H](CCC(N)=O)NC(=O)CNC(=O)[C@H](CCC(=O)O)NC(=O)[C@H](CC(C)C)NC(=O)[C@](C)(Cc1ccccc1)NC(=O)[C@H](CO)NC(=O)[C@H](CO)NC(=O)[C@@H](NC(=O)[C@H](CC(=O)O)NC(=O)[C@H](CO)NC(=O)[C@@H](NC(=O)[C@](C)(Cc1ccccc1)NC(=O)[C@H](CO)NC(=O)CNC(=O)[C@H](CCC(=O)O)NC(=O)C(C)(C)NC(=O)[C@@H](N)Cc1c[nH]cn1)[C@@H](C)O)C(C)C)C(=O)N[C@@H](C)C(=O)N[C@@](C)(Cc1ccccc1)C(=O)N[C@@H](CC(C)C)C(=O)N[C@H](C(=O)N[C@@H](CCCCN)C(=O)NCC(=O)NCC(N)=O)C(C)C [SEQ ID NO: 44, H-(Aib)^2-EG-(S)^5-(α-MeF)^6-TSDV^10 SS-(α-MeF)^13-LE^15 GQAA-(α-MeK)^20 E-(α-MeF)^22-IA-(α-MeF)^25 LVKG-(G)^30] (H-H[Aib]EGS[αMeF]TSDVSS[αMeF]LEGQAA[αMeK]E[αMeF]IA[αMeF]LVKGG-NH2) | 0.00985 nM | 104 nM | 104 nM |
| CC[C@H](C)[C@H](NC(=O)[C@](C)(Cc1ccccc1)NC(=O)[C@H](CCC(=O)O)NC(=O)[C@H](CCCCN)NC(=O)[C@H](C)NC(=O)[C@H](C)NC(=O)[C@H](CCC(N)=O)NC(=O)CNC(=O)[C@H](CCC(=O)O)NC(=O)[C@H](CC(C)C)NC(=O)[C@](C)(Cc1ccccc1)NC(=O)[C@H](CO)NC(=O)[C@H](CO)NC(=O)[C@@H](NC(=O)[C@H](CC(=O)O)NC(=O)[C@H](CO)NC(=O)[C@@H](NC(=O)[C@](C)(Cc1ccccc1)NC(=O)[C@H](CO)NC(=O)CNC(=O)[C@H](CCC(=O)O)NC(=O)C(C)(C)NC(=O)[C@@H](N)Cc1c[nH]cn1)[C@@H](C)O)C(C)C)C(=O)N[C@@H](C)C(=O)N[C@@](C)(Cc1ccccc1)C(=O)N[C@@H](CC(C)C)C(=O)N[C@H](C(=O)N[C@@](C)(CCCCN)C(=O)NCC(=O)NCC(N)=O)C(C)C [SEQ ID NO: 45, H-(Aib)^2-EG-(S)^5-(α-MeF)^6-TSDV^10 SS-(α-MeF)^13-LE^15 GQAAK^20 E-(α-MeF)^22-IA-(α-MeF)^25 LV-(α-MeK)^28-G-(G)^30] (H-H[Aib]EGS[αMeF]TSDVSS[αMeF]LEGQAAKE[αMeF]IA[αMeF]LV[αMeK]GG-NH2) | 0.0223 nM | 104 nM | 104 nM |
| CCCCCCCCCCCCCCCC(=O)NCCCC[C@H](NC(=O)CNC(=O)CNC(=O)[C@](C)(CCCCN)NC(=O)[C@@H](NC(=O)[C@H](CC(C)C)NC(=O)[C@](C)(Cc1ccccc1)NC(=O)[C@H](C)NC(=O)[C@@H](NC(=O)[C@](C)(Cc1ccccc1)NC(=O)[C@H](CCC(=O)O)NC(=O)[C@](C)(CCCCN)NC(=O)[C@H](C)NC(=O)[C@H](C)NC(=O)[C@H](CCC(N)=O)NC(=O)CNC(=O)[C@H](CCC(=O)O)NC(=O)[C@H](CC(C)C)NC(=O)[C@](C)(Cc1ccccc1)NC(=O)[C@H](CO)NC(=O)[C@H](CO)NC(=O)[C@@H](NC(=O)[C@H](CC(=O)O)NC(=O)[C@H](CO)NC(=O)[C@@H](NC(=O)[C@](C)(Cc1ccccc1)NC(=O)[C@H](CO)NC(=O)CNC(=O)[C@H](CCC(=O)O)NC(=O)C(C)(C)NC(=O)[C@@H](N)Cc1c[nH]cn1)[C@@H](C)O)C(C)C)[C@@H](C)CC)C(C)C)C(N)=O [SEQ ID NO: 47, H-(Aib)^2-EG-(S)^5-(α-MeF)^6-TSDV^10 SS-(α-MeF)^13-LE^15 GQAA-(α-MeK)^20 E-(α-MeF)^22-IA-(α-MeF)^25 LV-(α-MeK)^28-G-(G)^30-K(Ε-Palm)] (H-H[Aib]EGS[αMeF]TSDVSS[αMeF]LEGQAA[αMeK]E[αMeF]IA[αMeF]LV[αMeK]GGK(Palmitoyl)-NH2) | 0.105 nM | 92.7 nM | 92.7 nM |
| CC[C@H](C)[C@H](NC(=O)[C@](C)(Cc1ccccc1)NC(=O)[C@H](CCC(=O)O)NC(=O)[C@H](CCCCN)NC(=O)[C@H](C)NC(=O)[C@H](C)NC(=O)[C@H](CCC(N)=O)NC(=O)CNC(=O)[C@H](CCC(=O)O)NC(=O)[C@H](CC(C)C)NC(=O)[C@](C)(Cc1ccccc1)NC(=O)[C@H](CO)NC(=O)[C@H](CO)NC(=O)[C@@H](NC(=O)[C@H](CC(=O)O)NC(=O)[C@H](CO)NC(=O)[C@@H](NC(=O)[C@](C)(Cc1ccccc1)NC(=O)[C@H](CO)NC(=O)CNC(=O)[C@H](CCC(=O)O)NC(=O)C(C)(C)NC(=O)[C@@H](N)Cc1c[nH]cn1)[C@@H](C)O)C(C)C)C(=O)N[C@@H](C)C(=O)N[C@@](C)(Cc1ccccc1)C(=O)N[C@@H](CC(C)C)C(=O)N[C@H](C(=O)N[C@@H](CCCCN)C(=O)NCC(=O)NCC(=O)N[C@@H](CO)C(=O)N[C@@H](CO)C(=O)NCC(=O)N[C@@H](CO)C(=O)N[C@@H](CO)C(=O)NCC(=O)N[C@@H](CO)C(=O)N[C@@H](CO)C(=O)NCC(=O)N[C@@H](CCCCN)C(N)=O)C(C)C [SEQ ID NO: 48, H-(Aib)^2-EG-(S)^5-(α-MeF)^6-TSDV^10 SS-(α-MeF)^13-LE^15 GQAAK^20 E-(α-MeF)^22-IA-(α-MeF)^25 LVKG-(G)^30-(SSG)3-K] (H-H[Aib]EGS[αMeF]TSDVSS[αMeF]LEGQAAKE[αMeF]IA[αMeF]LVKGGSSGSSGSSGK-NH2) | 0.0238 nM | 82.9 nM | 82.9 nM |
| CCCCCCCCCCCCCCCC(=O)N[C@@H](CCC(=O)NCCCC[C@H](NC(=O)CNC(=O)[C@H](CO)NC(=O)[C@H](CO)NC(=O)CNC(=O)[C@H](CO)NC(=O)[C@H](CO)NC(=O)CNC(=O)[C@H](CO)NC(=O)[C@H](CO)NC(=O)CNC(=O)CNC(=O)[C@H](CCCCN)NC(=O)[C@@H](NC(=O)[C@H](CC(C)C)NC(=O)[C@](C)(Cc1ccccc1)NC(=O)[C@H](C)NC(=O)[C@@H](NC(=O)[C@](C)(Cc1ccccc1)NC(=O)[C@H](CCC(=O)O)NC(=O)[C@H](CCCCN)NC(=O)[C@H](C)NC(=O)[C@H](C)NC(=O)[C@H](CCC(N)=O)NC(=O)CNC(=O)[C@H](CCC(=O)O)NC(=O)[C@H](CC(C)C)NC(=O)[C@](C)(Cc1ccccc1)NC(=O)[C@H](CO)NC(=O)[C@H](CO)NC(=O)[C@@H](NC(=O)[C@H](CC(=O)O)NC(=O)[C@H](CO)NC(=O)[C@@H](NC(=O)[C@](C)(Cc1ccccc1)NC(=O)[C@H](CO)NC(=O)CNC(=O)[C@H](CCC(=O)O)NC(=O)C(C)(C)NC(=O)[C@@H](N)Cc1c[nH]cn1)[C@@H](C)O)C(C)C)[C@@H](C)CC)C(C)C)C(N)=O)C(=O)O [SEQ ID NO: 49, H-(Aib)^2-EG-(S)^5-(α-MeF)^6-TSDV^10 SS-(α-MeF)^13-LE^15 GQAAK^20 E-(α-MeF)^22-IA-(α-MeF)^25 LVKG-(G)^30-(SSG)3-K(Ε-γ-E-Palm)] (H-H[Aib]EGS[αMeF]TSDVSS[αMeF]LEGQAAKE[αMeF]IA[αMeF]LVKGGSSGSSGSSGK([γGlu-Palmitoyl])-NH2) | 0.00929 nM | 75.9 nM | 40.9 nM |
| CC[C@H](C)[C@H](NC(=O)[C@](C)(Cc1ccccc1)NC(=O)[C@H](CCC(=O)O)NC(=O)[C@](C)(CCCCN)NC(=O)[C@H](C)NC(=O)[C@H](C)NC(=O)[C@H](CCC(N)=O)NC(=O)CNC(=O)[C@H](CCC(=O)O)NC(=O)[C@H](CC(C)C)NC(=O)[C@](C)(Cc1ccc(O)cc1)NC(=O)[C@H](CO)NC(=O)[C@H](CO)NC(=O)[C@@H](NC(=O)[C@H](CC(=O)O)NC(=O)[C@H](CO)NC(=O)[C@@H](NC(=O)[C@](C)(Cc1ccccc1)NC(=O)[C@H](CO)NC(=O)CNC(=O)[C@H](CCC(=O)O)NC(=O)C(C)(C)NC(=O)[C@@H](N)Cc1c[nH]cn1)[C@@H](C)O)C(C)C)C(=O)N[C@@H](C)C(=O)N[C@@](C)(Cc1c[nH]c2ccccc12)C(=O)N[C@@H](CC(C)C)C(=O)N[C@H](C(=O)N[C@@](C)(CCCCN)C(=O)NCC(=O)N[C@@](C)(CCCNC(=N)N)C(N)=O)C(C)C [SEQ ID NO: 57, H-(Aib)^2-EG-(S)^5-(α-MeF)^6-TSDV^10 SS-(α-MeY)^13-LE^15 GQAA-(α-MeK)^20 E-(α-MeF)^22-IA-(α-MeW)^25 LV-(α-MeK)^28-G-(α-MeR)^30] | 0.0271 nM | 19.9 nM | 139 nM |
